Reference: patent US20030091998A1, “Association of beta2-adrenergic receptor haplotypes with drug response” (priority 2000, published 2003)

System: asthma patients
Test: In vivo FEV1 (bronchodilator) response to albuterol in asthma patients, by β2AR haplotype pair
Set-up: species or system human
Procedure: The patients in the asthma cohort were enrolled from an outpatient facility as described in detail elsewhere (Yan, L., Galinsky, R. E., Bernstein, J. A., Liggett, S. B. & Weinshilboum, R. M. (1999) Pharmacogenetics in Press). […] Forced expiratory volume in 1 second (FEV1) and forced vital capacity (FVC) were determined in triplicate. The predicted values for these measurements were calculated based on standard algorithms (Morris, J. F., Koski, A. & Johnson, L. C. (1971) Am Rev Respir Dis 103, 57-67).
The association between changes in % predicted FEV1 and haplotype pair was assessed by fitting an analysis of covariance model (ANCOVA) with terms for haplotype pair, sex and baseline severity. P-values from pairwise comparisons by haplotype pair were adjusted for multiple comparisons by applying the Holm-Sidak step-down procedure (Ludbrook, J. (1998) Clin and Exp Pharmacology & Physiology 25, 1032-1037.). […] In addition, the African-American asthma patients were excluded from the analysis due to the low number of individuals in this population group. For the analysis of individual SNPs, a similar ANCOVA model was employed with a discrete term for SNP genotype, and terms for sex and baseline severity. The Holm-Sidak step-down procedure was used to adjust the p-values from the individual SNP analyses for the number of tests performed.
Pairwise tests were made while correcting for multiple comparisons. […] For this analysis, a similar ANCOVA model as above was utilized. […] Since 0, 1 or 2 copies of these two haplotypes are present in our population as haplotype pairs 2/2, 2/4 and 4/4, a potential gene dose effect can be assessed by regression analysis.

CC(C)(C)NCC(O)c1ccc(O)c(CO)c1 (centres unmarked) [albuterol]
change % FEV1 (change in % predicted FEV1) (Caucasian asthma patients with β2AR haplotype pair 4/4, spirometry before and 30 min after inhalation of 180 μg albuterol by nebulization): 8.53±1.78% | bronchodilator response to albuterol (asthmatic patients with β2AR haplotype pair 2/6): moderate bronchodilator response | bronchodilator response to albuterol (asthmatic patients with β2AR haplotype pairs 2/2 and 4/6): respond well | bronchodilator response to albuterol (asthmatic patients with β2AR haplotype pairs 2/4 and 4/4): little to no response | greater response of haplotype pair 2/2 than haplotype pair 4/4 (in vivo FEV1 response, individuals with haplotype pair 2/2 vs 4/4 (FIG. 5)): ~50%
